Data: patent publication US11419934B2, “Use of VDAS to enhance immunomodulating therapies against tumors” (Oncotelic Therapeutics, Inc., priority 2015, dated 2022)

Assays:
[1] = test system: T-cell mediated immune response; details: J. Immunol. 2007; 178: 1573-1580; cited from earlier work
[2] = test system: EMT-6 mouse mammary tumor cells; assay: antitumor activity in mice bearing subcutaneous EMT-6 mouse mammary tumor cells; format: in vivo
Experimental: A randomized trial was conducted to evaluate the antitumor activity of fosbretabulin tromethamine (CA4P) in mice bearing subcutaneous EMT-6 mouse mammary tumor cells in combination with other treatments. Other treatments include a combination treatment with anti-CTLA-4 antibody (ref: BE0131, Bioxcell; clone: 9H10; reactivity: mouse; isotype: Hamster IgG1; storage conditions: +4° C.).
CA4P and anti-CTLA-4 antibodies were prepared in phosphate buffered saline (PBS). CA4P was injected at the dose of 100 mg/kg. The anti-CTLA-4 antibody was injected at the dose of 10 mg/kg. The tested items were injected into the peritoneal cavity of mice (e.g. intraperitoneally, IP). The administration volume was 10 mL/kg (200 μL/mouse of 20 g) adjusted to the most recent individual body weight of the mice.
An EMT-6 cell line having an ATCC origin and a culture medium was used. The EMT-6 cell line was established from a transplantable murine mammary carcinoma that arose in a BALB/cCRGL mouse after implantation of a hyperplastic mammary alveolar nodule. EMT-6 tumor cells were grown as a monolayer at 37° C. in a humidified atmosphere (5% CO2, 95% air). The culture medium was RPMI 1640 containing 2 mM L-glutamine (ref: BE12-702F, Lonza, Verviers, Belgium) supplemented with 10% fetal bovine serum (ref: 3302, Lonza).
Healthy female Balb/C mice, 6-8 weeks old at reception, were used in the study. […]

SMILES	effect on T-cell mediated immune response [1]	average tumor size (tumor volume versus time, FIG. 1) ([2]; Balb/C mice, EMT-6 tumors, CA4P 100 mg/kg IP, anti-CTLA-4 10 mg/kg IP, TWx2)	mice showing tumor regression ([2]; groups of 8 Balb/C mice, subcutaneous EMT-6 tumors, CA4P 100 mg/kg IP TWx2, anti-CTLA-4 10 mg/kg IP TWx2)
COc1cc2c(c(OC)c1OC)-c1ccc(OP(=O)(O)O)cc1[C@@H](NC(C)=O)CC2 [ZD6126]	may reduce T-cell mediated immune response		
COc1ccc(/C=C\c2cc(OC)c(OC)c(OC)c2)cc1OP(=O)(O)O.NC(CO)(CO)CO [CA4P, fosbretabulin tromethamine]		steadily increased	One of the eight
